# Test results: article PMC9253215, “A new strategy: identification of specific antibodies for neutralizing epitope on SARS-CoV-2 S protein by LC-MS/MS combined with immune repertoire” (Molecular Biomedicine, 2022)
# pKd: −log10 of the molar value. Ends that are not written are not given here.
# Experiments:
# SARS-CoV-2 pseudovirus = assay type: cell-based
# S1 protein = target: T1, S1 protein (Severe acute respiratory syndrome coronavirus 2, UniProt P0DTC2); assay: biochemical; assay type: binding, SARS-CoV-2
# T1 construct: Purified S1 protein was first immobilized on a series S sensor chip protein A; purchased OkayBio
Sequence,neutralizing ability by authentic virus neutralization assays (SARS-CoV-2),neutralizing activity against SARS-CoV-2 by IFA assay (SARS-CoV-2),neutralizing ability by pseudovirus neutralizing assay (SARS-CoV-2 pseudovirus),pKd (S1 protein),IC50 (SARS-CoV-2; 24 h) [µg/mL]
AKDFRQYCSSTTCYDLDY [CDR3 peptide 21],showed neutralizing ability,obvious neutralizing activity,showed neutralizing ability,–,–
ARDIVVPAAMGEIGGWFDP [CDR3 peptide 16],–,–,–,4.62,–
ARDVSSLYGGNSDDY [CDR3 peptide 24],–,no neutralizing activity,–,–,–
ARERADDYSNYCWFDP [CDR3 peptide 12],showed neutralizing ability,obvious neutralizing activity,showed neutralizing ability,–,–
ARESLYDFDGSGYVDALDV [CDR3 peptide 11],–,–,–,6.58,–
EAWDVDNRVFGGGTR [CDR3 peptide 51],–,obvious neutralizing activity,–,–,1250 to 2500
TTDRYQLLWAG [CDR3 peptide 22],showed neutralizing ability,obvious neutralizing activity,showed neutralizing ability,–,–
VRERISYFDHWGQG [CDR3 peptide 53],–,obvious neutralizing activity,–,–,–
VRYSPEPAVLITEGYFD [CDR3 peptide 4],showed neutralizing ability,modestly lower neutralizing activity,showed neutralizing ability,–,–
YYCQQYDNLSGT [CDR3 peptide 44],showed neutralizing ability,modestly lower neutralizing activity,showed neutralizing ability,–,–
YYCQSYDSSNVV [CDR3 peptide 47],showed neutralizing ability,modestly lower neutralizing activity,showed neutralizing ability,–,–
